Experimental data from patent publication US5891916A, “Aromatic hydroxamix acid compounds, their production and use” (Takeda Chemical Industries, Ltd., priority 1995, dated 1999).

Tested on: rats pretreated with LPS infused into the unilateral striatum
Test: Inhibitory effect on the apomorphine-induced circling behavior in rats pretreated with LPS infused into the unilateral striatum
Format: in vivo, rat
Conditions: male Wistar rats; i.p. 0.2 ml per 100 g, 30 minutes before LPS infusion and 3 and 24 hours after; apomorphine 1 mg/kg s.c. 7-8 days postoperatively; 30-minute count
Method: Inhibitory effect on the apomorphine -induced circling behavior in rats pretreated with LPS infused into the unilateral striatum Male Wistar rats (8-9 week old) weighing 250-280 g at the operation for LPS infusion were submitted to this experiment.. Throughout the experimental period, the animals were group-fed in a vivarium controlled at 24±1° C. and 55±1% R.H., with a light-dark cycle of 12 hr (7:00-19:00 ON) and free access to food (Clea Japan, Inc., CE-2 solid pellets) and water (tap water). Under pentobarbital (50 mg/kg, i.p.) anesthesia, the rat's head was immobilized in David Kopf's brain stereotaxic apparatus for small animal use and with reference to Pellegrino & Cushman's brain atlas, a 30 Gauge stainless steel needle was indwelled in the unilateral striatum (A8.2, L2.8, H4.3). The infusion volume of LPS was set at 5 μg. LPS was dissolved in 1 μl of a phosphate-buffered physiological saline solution (PBS, pH 7.2) and the solution was infused gradually at a speed of 0.2 μl/min. The infusion needle was kept in position till 3 minutes following infusion and withdrawn only after sufficient diffusion of the drug solution had taken place. After 7-8 days postoperatively, 1 mg/kg of apomorphine was administered subcutaneously and the number of induced circling behavior during a 30-minute period immediately following administration were determined with an automatic counter. […]

**Q.** Which “number of induced circling behavior relative to control group” value does the source give for `N#CC(CCCCCC(=O)NO)(c1ccccc1)c1ccccc1` [Compound 1, 7-Cyano-7,7-diphenylheptanohydroxamic acid] here?
**A.** 41%

Tested on: rat mixed cerebral cell culture
Test: Neutralizing effect on lipopolysaccharide (LPS)-induced cytotoxicity in a rat mixed cerebral cell culture system (LIC assay)
Format: cell-based
Conditions: neonatal rat mixed cerebral cells, 4 to 5 days incubation, MTT, concentration giving 50% recovery rate, read-out: ED50 value
Method: Neutralizing effect on lipopolysaccharide (LPS)--induced cytotoxicity in a rat mixed cerebral cell culture system (LIC assay)
LPS, a substance known to activate glial cells (astrocytes, microglia), was added to a rat mixed cerebral cell culture system and the compounds which would neutralize the cytotoxicity induced by LPS were screened by the following method.
(1) Neonatal rat mixed cerebral cell culture
From neonatal Crj:CD (SD) rats (1-3 day old, Charles-River Japan, Ltd), the brains were isolated and placed in ice-cooled D-MEM/10% FCS (Dulbecco's cell culture minimal essential medium supplemented with 10% of fetal calf serum, 100 units/ml of penicillin and 100 gg/ml of streptomycin). Then, mixed cerebral cell culture were treated in the following steps. Incidentally stating, ice-cooled D-MEM/10%FCS was used as the medium.
1. The cerebrum was separated from the enucleated brain and the meninges was removed under a stereoscopic microscope.
2. The cerebrums were placed in a nylon-mesh (100-200 μm) bag for filtration with the aid of a rubber policeman.
3. Using ice-cooled D-MEM/10% FCS, the cells were washed three times (1,000 rpm, 8 min.). Then, this cell suspension was subjected to filtration through a cell strainer (40 μm mesh, Falcon 2340) and the number of viable cells was counted by the trypan blue method.
4. The cells were seeded in a tissue-culture flask (96-well microtiter plate, Nunc) at a cell density of 1×10^5 cells/100 μl/well).
5. One week later, 100 μl/well of D-MEM/10% FCS was added.
6. The plate was further incubated for about 1 to 2 weeks and the neutralizing activity of the test compounds was evaluated by the following method.
(2) Evaluation of neutralizing activity
1. Following the rat mixed cerebral cell culture in (1) above (after 2-3 weeks of incubation), the medium was discarded from the respective wells of the 96-well microtiter plate, and 50 μl/well of fresh D-MEM/2% FCS was added.
2. A test sample and LPS (manufactured by Difco Inc., E. coli 011: B4, Bact) of an adequate concentration, 25 μl per well, were respectively added. D-MEM/2% FCS was employed as the medium.
As the test sample, each of the compounds shown in Table 21 was dissolved in DMSO at a concentration of 10^-2 M and the solution was diluted with D-MEM/2% FCS, which was used for assay.
3. After a suitable period (usually 4 to 5 days) of incubation, the degree of cytotoxic effect was assessed by the microscopic observation, and MTT method.
(3) MTT [3-(4,5-dimethylthiazol-2-yl)-2,5-diphenyltetrazolium bromide] method
MTT dissolved in a phosphate-buffered physiological saline solution (5 mg/ml, manufactured by Sigma Chemical Co.,) was added, 10 μl per well. After 4 to 6 hours of incubation (37° C., under 10% carbon dioxide gas phase), 100 μl/well of 0.01N HCl containing 10% SDS was added to thereby dissolve the formed formazan. After complete dissolution, the absorbance (wave-length 540-590 nm) was measure for each well.
The ED50 values were determined by calculating the recovery rates by means of the following equation and plotting the concentrations of compounds giving a recovery rate of 50% on graph paper.
Recovery rate (%)=(C-B)×100/(A-B)
[A: the absorbance at 550 nm of the control well to which only the medium had been was added
B: the absorbance at 550 nm of the well to which LPS had been added
C: the absorbance at 550 nm of the well to which both LPS and the test compound had been added]

**Q.** `N#CC(CCCCCC(=O)NO)(c1ccccc1)c1ccccc1` [Compound 1, 7-Cyano-7,7-diphenylheptanohydroxamic acid] was tested. Which EC50 did it give?
**A.** 10 nM

**Q.** How did the EC50 turn out when `N#CC(CCCCCC(=O)NOC(=O)c1ccccc1)(c1ccccc1)c1ccc2ccccc2n1` (stereo not drawn) [Compound 21, O-benzoyl-7-cyano-7-phenyl-7-(2-quinolyl)heptanohydroxamic acid] was run?
**A.** 10 nM

**Q.** Which EC50 does the source give for `N#CC(CCCCCC(=O)NO)(c1ccccc1)c1ccc2ccccc2n1` (stereo not drawn) [Compound 12, 7-cyano-7-phenyl-7-(2-quinolyl)heptanohydroxamic acid] here?
**A.** 10 nM

**Q.** `N#CC(CCCCCC(=O)NO)(c1ccccc1)c1nc2ccccc2s1` (stereo not drawn) [Compound 11, 7-(2-benzothiazolyl)-7-cyano-7-phenylheptanohydroxamic acid] was tested. Which EC50 did it give?
**A.** 10 nM

**Q.** For `CCC(=O)ONC(=O)CCCCCC(C#N)(c1ccccc1)c1ccc2ccccc2n1` (stereo not drawn) [Compound 20, O-propionyl-7-cyano-7-phenyl-7-(2-quinolyl)heptanohydroxamic acid], which EC50 is on record?
**A.** 10 nM

**Q.** `N#CC(CCCCCC(=O)NO)(c1ccccc1)c1ccc(F)cc1` (stereo not drawn) [Compound 3, 7-cyano-7-(4-fluorophenyl)-7-phenylheptanohydroxamic acid] was tested. Which EC50 did it give?
**A.** 10 nM

**Q.** With `CCC(=O)ONC(=O)CCCCCC(C#N)(c1ccccc1)c1ccccc1` [Compound 13, O-Propionyl-7-cyano-7,7-diphenylheptanohydroxamic acid] as the compound, how does the EC50 read?
**A.** 10 nM

**Q.** Which EC50 does the source give for `COc1ccccc1C(C#N)(CCCCCC(=O)NO)c1ccccc1` (stereo not drawn) [Compound 4, 7-cyano-7-(2-methoxyphenyl)-7-phenylheptanohydroxamic acid] here?
**A.** 10 nM
